Results from ChEMBL document CHEMBL4613264, “Design, Synthesis, and Biological Evaluation of New Peripheral 5HT2A Antagonists for Nonalcoholic Fatty Liver Disease” (J Med Chem, 2020).

Columns and labels:
[1] = target: 5-hydroxytryptamine receptor 2A (Homo sapiens, UniProt P28223); assay: Antagonist activity at 5HT2A receptor (unknown origin) expressed in HEK293 cells assessed as inhibition of serotonin hydrochloride-induced calcium flux preincubated for 1 hr followed by serotonin hydrochloride addition by calcium 6 dye based FLIPR assay; assay type: functional, cell-based
in vitro = conditions: rat, liver microsomes
Description: Stability in rat liver microsomes assessed as parent compound remaining measured after 30 mins

[2] = Stability in human liver microsomes assessed as parent compound remaining measured after 30 mins; assay type: ADME, Microsome; conditions: read-out: Stability

5-hydroxytryptamine receptor 2A, sequence (P28223 whole entry): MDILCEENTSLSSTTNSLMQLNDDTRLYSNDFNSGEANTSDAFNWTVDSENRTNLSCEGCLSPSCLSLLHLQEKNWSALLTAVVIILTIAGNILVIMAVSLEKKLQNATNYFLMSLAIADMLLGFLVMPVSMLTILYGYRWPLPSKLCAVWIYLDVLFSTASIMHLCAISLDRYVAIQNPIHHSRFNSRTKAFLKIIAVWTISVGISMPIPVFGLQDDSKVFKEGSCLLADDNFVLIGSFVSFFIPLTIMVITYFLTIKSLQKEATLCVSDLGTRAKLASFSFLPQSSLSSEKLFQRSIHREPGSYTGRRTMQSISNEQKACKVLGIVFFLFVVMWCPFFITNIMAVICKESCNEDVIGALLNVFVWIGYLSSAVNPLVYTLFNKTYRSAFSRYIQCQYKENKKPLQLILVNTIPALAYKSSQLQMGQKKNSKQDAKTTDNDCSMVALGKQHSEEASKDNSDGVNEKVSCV

IC50 [1] [nM] | SMILES | remaining at 0.5 h (in vitro) [%] | remaining at 0.5 h [2] [%]
0.87 | CN1CCC(N(Cc2ccc(F)cc2)C(=O)NCc2ccc(OCC(O)CN3CCN(c4nsc5ccccc45)CC3)cc2)CC1 (stereo unspecified) |  | 
2020 | CC(C)COc1ccc(CNC(=O)N(Cc2ccc(F)cc2)C2CCN(S(C)(=O)=O)CC2)cc1 |  | 
0.6 | CC(C)COc1ccc(CNC(=O)N(Cc2ccc(F)cc2)C2CCNCC2)cc1 |  | 

More lines, now with the values behind:

SMILES | IC50 [1] [nM] | remaining at 0.5 h (in vitro) [%] | remaining at 0.5 h [2] [%]
CN1CCC(N(Cc2ccc(F)cc2)C(=O)NCc2ccc(OCC(O)CN3CCN(C(=O)OC(C)(C)C)CC3)cc2)CC1 (stereo unspecified) | 1.94 |  | 
O=C1CC2(CCCC2)CC(=O)N1CCCCN1CCN(c2ncccn2)CC1 [BUSPIRONE] |  | 15 | 4
